Like-named read-outs stand apart in the source and are kept apart here.
Experiments:
A375 cells = format: cell-based, human; details: A375 soft agar; single compound at IC10
From the text: After three weeks of treatment, cells were fixed and stained in 1% paraformaldehyde in 1×PBS containing 0.005% crystal violet overnight. Cells were destained with multiple washes of 1×PBS to remove background staining. Plates were scanned and images quantified using Nikon NIS Elements software. To quantify, each image was sharpened and an ROI of equal size drawn around each well. Intensity thresholds were set to include all pixels equal to or greater than the intensity of the mean background fluorescence. Objects within the threshold of each ROI were quantified using an automated object count function and exported for analysis. Object number was quantified to denote total colony formation. […] Additivity was established when the expected viability determined by the Bliss independence model was equal to the actual viability. This model was chosen since the effects of both compounds are mutually non-exclusive and follow first order Michaelis-Menten kinetics.
To determine if the effects of each combination were more than, less than, or equal to additive, predictions for additivity were made using the Bliss Independence (Table 7), as disclosed in Yan H, Zhang B, Li S, Zhao Q. A formal model for analyzing drug combination effects and its application in TNF-alpha-induced NFkappaB pathway. BMC Syst. […] Drug combination studies and their synergy quantification using the Chou-Talalay method.

[1] = test system: U2OS cells stably expressing tfLC3; format: cell-based; details: for Effective Concentration (EC): concentration with statistically significant increase in puncta number over vehicle control, three hours
Procedure: U2OS cells stably expressing tfLC3 were seeded at 50,000 cells per well in 5A McCoy's with 10% FBS on number 1.5 coverglass in 24-well tissue culture dishes. After 24 hours, cells were treated with known autophagy controls rapamycin [100 nM] (Millipore, 553210-10 mg), bafilomycin A1 [100 nM] (AG Scientific, B-1183), AZD-8055 [100 nM](Selleck Chemicals, S1555), and CQ [50 μM] as well as autophagy inhibitors (CQ, QN, Example 7, and Example 27) at doses of 0.1 μM, 0.25 μM, 0.5 μM, 1 μM, 5 μM, 15 μM, 25 μM, and 50 μM for three hours. Cells were washed with 1×PBS, fixed with 3.7% formaldehyde, and nuclei were stained with Hoechst 33342 (2 μg/mL). Coverglass was inverted onto microscope slides using mounting gel. Cells were imaged using a 60× oil-immersion objective on a Nikon Eclipse Ti fluorescent microscope and 10 images at each dose were taken for quantification. Image processing and quantification were completed with the Nikon NIS Elements software. To quantify, images were deconvolved using a 2D blind deconvolution function with one iteration and settings of normal cell thickness and normal noise level. Regions of interest (ROI) were drawn around the edges of each cell. Intensity thresholds were set to include all pixels equal to or greater than the intensity above the mean background fluorescence using the separation feature and restrictions set for puncta size (FIG. 9). Objects within the threshold for each ROI were quantified using an automated object count function and exported for analysis. Although other parameters were also collected, the mean intensity of the objects was averaged between the 10 images of each dose, or approximately 50 cells (FIGS. 9B and 9C). Representative images were chosen for each dose and the lookup table (LUT) brightness' were set based on the mean intensity of the DMSO control (FIGS. 8A and 10A). The mean intensity of each image was divided by the mean intensity of the DMSO control to control for brightness and the LUTs were adjusted by the percent difference to avoid background and for consistent visualization. All other settings (gain, exposure time, and lamp strength) were kept the same across all conditions. […] Mean intensity was further chosen for quantification as it accurately represents both the increase in puncta number and area when the accumulation of autophagosomes partially fuse (FIG. 9C, 9D). Quantification of the red channel (RFP-LC3 puncta) was performed to determine the total autophagic vesicle population (both autophagosomes and autolysosomes).
Autophagy inhibition can be measured by fluorescent microscopy using cells expressing a tandem fluorescent (RFP-GFP) labeled LC3 sensor (tfLC3). Upon autophagosome nucleation, LC3 is localized to the autophagic membrane and the overlapping GFP and RFP fluorescence appears as yellow puncta. After the autophagosome matures, it fuses with the lysosome, forming an autolysosome. The GFP in this LC3 sensor is pH labile and becomes quenched by the acidic environment of the autolysosome. However, the RFP remains stable; therefore, autolysosomes are indicated by red puncta. Accordingly, when autophagy is inhibited at the final stage (completion), the abundance of yellow puncta is expected to increase proportionally to the level of autophagy inhibition.
Cells were then fixed and imaged by fluorescent microscopy.

[2] = test system: endogenous LC3 in U2OS cells; assay: Western blot of endogenous LC3 (LC3-II accumulation) in U2OS; format: cell-based; details: three hours, basally and in response to rapamycin-induced autophagy induction, FIG. 7
Procedure: For Western blotting, U2OS cells were seeded in 10 cm plates in 5A McCoy's with 10% FBS at 1×10^6 cells per plate. […] After treatment, cells were lysed [10 mM KPO4, 1 mM EDTA, 10 mM MgCl2, 5 mM EGTA, 50 mM bis-glycerophosphate, 0.5% NP40, 0.1% Brij35, 0.1% sodium deoxycholate, 1 mM NaVO4, 5 mM NaF, 2 mM DTT, and complete protease inhibitors (Sigma, P8340-5 mL)] and 50 μg of protein was resolved by SDS-PAGE. […] Proteins were detected with enhanced chemiluminescence or using the Odyssey machine and quantified (FIGS. 12, 15, 16, 7 and 11).

[3] = test system: lysosomes (LAMP1, LysoTracker Red) in U2OS cells; assay: Lysosome analysis by fluorescent microscopy (LAMP1 / LysoTracker Red); format: cell-based; details: 3 μM for 3 hours
Procedure: To determine deacidification of the lysosome, cells were incubated with LysoTracker Red, a dye that localizes to the lysosome based on the […] of the compartment. If the lysosome is no longer acidic, there is a loss in the amount of LysoTracker Red staining. Lysosomal inhibition was further determined by immunofluorescence of lysosome-associated membrane protein-1 (LAMP1). If the lysosome is inhibited, lysosomal turnover should decrease and an increase in the amount of LAMP1 staining would be apparent. U2OS cells were treated with Example 7 or Example 26 at 3 μM for 3 hours, supplementing LysoTracker Red for the final hour.
Using image analysis software, the mean intensities of both the LAMP1 and LysoTracker Red staining were measured and represent altered intensity level between treatments on intensity plots. Individual points were measured using a line scan on the image analysis software, which measures the intensity across the path of a line at any given point. Not only does the presence of LAMP1 positive membranes increases, but the intensity in LAMP1 staining also increases with Example 7 and Example 26 treatment. The inverse relationship in intensity holds true for LysoTracker Red staining.
U2OS cells were seeded at 5×10^4 cells per well in 5A McCoy's with 10% FBS on number 1.5 coverglass discs in 24-well tissue culture dishes. After 24 hours, cells were treated with 3 μM CQ, QN, VATG-027, or VATG-032 for three hours. An hour prior to fixation, media was supplemented with LysoTracker Red added at 100 nM (Invitrogen, L7528). Cells were washed with 1×PBS, fixed with 3.7% formaldehyde, permeabilized with 0.2% Triton-X 100, and blocked with 3% bovine serum albumin (BSA) in PBS. LAMP1 antibody (Santa Cruz, sc-18821) was added at 1:1000 for 16 hours at 4° C. followed by Alexa-Fluor-488-conjugated anti-mouse IgG (Invitrogen, A11008) 1:5000 for 1 hour at room temperature. Nuclei were stained with Hoechst 33342 (2 μg/mL). Coverglass discs were inverted onto a microscope slide using mounting gel. The microscope slides were imaged using a 60× oil-immersion objective on a Nikon Eclipse Ti fluorescent microscope. Intensity of the red and green channels were visualized using the intensity plot on the Nikon NIS Elements software (FIG. 13B). […] The RGB threshold of only the color […] indicating both LAMP1 and LysoTracker Red positivity was performed and data for analysis. The Mander's co-localization coefficient was produced from the Nikon NIS Elements software.
Next, the inventors sought to confirm the inhibition of lysosomal turnover induced by the compounds of the present invention, for example, those of Formula III, Formula III(a), Formula V, Formula V(a), Formula A, Formula A^1, Formula A^2, Formula A^3, or a pharmaceutically acceptable salt thereof, by evaluating the abundance of endogenous lysosomal protein, LAMP1. In addition, lysosome acidity was assessed by co-staining cells with LysoTracker Red, a dye that localizes to the lysosome based on the low pH. Cells were treated with 3 μM CQ, QN, Example 7, or Example 27 for 3 hours, with LysoTracker Red supplemented for the final hour. Following, cells were fixed and stained with endogenous LAMP1 antibodies and both LAMP1 and LysoTracker Red imaged. […] To quantify this phenotype, the co-localization of LAMP1 and LysoTracker Red was measured using image analysis software. […] In addition, Mander's colocalization coefficient (MCC) values were determined for each treatment (FIG. 13C). Not only does the presence of LAMP1-positive membranes increase, but the intensity of LAMP1 staining also increases with QN, Example 7, and Example 27 treatment (FIG. 13C).

| Compound | Potency (EC/ECCQ) [1] | Effective Concentration (EC) [1] [µM] | accumulation of LC3-II [2] | also measured |
| --- | --- | --- | --- | --- |
| COc1ccc(-c2ccc3c(N4CCOC[C@@H]4C)nc(N4CCOC[C@@H]4C)nc3n2)cc1CO [AZD-8055, reference compound] |  |  |  | Relative Growth Inhibition Compound B (A375 cells): 0.12 |
| CCN(CC)Cc1cc(Nc2ccnc3cc(Cl)ccc23)ccc1O [Amodiaquine, amodiaquine] | 1 | 15 | induce the accumulation of LC3-II |  |
| CCN1CCC(Nc2c3c(nc4cc(Cl)ccc24)CCCC3)CC1 [Example 26, 6-Chloro-N-(1-ethylpiperidin-4-yl)-1,2,3,4-tetrahydroacridin-9-amine] |  |  |  | LAMP1 staining [3]: increases; LysoTracker Red staining ([3]; LysoTracker Red for the final hour): less intense |
| COc1cc(NC(C)CCCN)c2ncccc2c1 (stereo not drawn) [Primaquine, primaquine] |  | 50 | induce the accumulation of LC3-II | Potency (EC/ECCQ) ([1]; relative potency score versus chloroquine, greater than one = more potent than CQ): 0.25 |
| piperaquine | 0.25 | 50 | induce the accumulation of LC3-II |  |

— US20170000784A1, “Autophagy Inhibitors” (priority 2013, published 2017)
